Source: patent publication US20080139648A1, “Product Containing Prostaglandin Having Fluorine Atom In Its Molecule” (Santen Pharmaceutical Co., Ltd., priority 2004, published 2008)

Assay: storage stability test of eye drop in resin container (content by HPLC)
Format: physicochemical
From the text: The content of the present prostaglandin derivative refers to the ratio (%) of the concentration of the present prostaglandin derivative existing in the aqueous liquid preparation after a predetermined period of time to the original concentration of the present prostaglandin derivative existing in the aqueous liquid preparation when the prostaglandin-containing product is produced throughout the claims and the specification. For example, in the case where the present prostaglandin derivative is dissolved in water, it refers to the ratio (%) of the concentration of the present prostaglandin derivative existing in the aqueous solution after a predetermined period of time to the concentration of the present prostaglandin derivative dissolved in water.
A 5-ml eye drop resin container was obtained by injection blow molding of a propylene/ethylene random copolymer (containing an ethylene component in an amount of 3%).
The resin container obtained in the section of “2. Production of Resin Container” was subjected to a sterilization treatment with ethylene oxide gas (sterilization with ethylene oxide at a concentration of 20% (v/v), at a temperature of 40° C. and a relative humidity of 50% for 3 hours), and then, in the container, Eye drop 1 obtained in the section of “1. Preparation of Eye Drop” was charged. […] The concentration of the present compound in the container was measured by high performance liquid chromatography before the initiation of storage and after 30-day storage. The content of the present compound was calculated taking the concentration of the present compound at the time of initiation of storage as a standard (100%). Incidentally, each value in Table 1 is expressed as an average of three cases.
Except that the sterilization treatment with ethylene oxide gas was altered into a sterilization treatment with gamma rays (32 kGy), the content of the present compound was calculated in the same manner as in Example 1.
Except that the sterilization treatment with ethylene oxide gas was altered into a sterilization treatment with electron rays (23 kGy), the content of the present compound was calculated in the same manner as in Example 1.
Except that a container with no sterilization treatment was used as the container, the content of the present compound was calculated in the same manner as in Example 1.
Except that Eye drop 1 was altered into Eye drop 2, the content of latanoprost was calculated in the same manner as in Example 1.
Except that Eye drop 1 was altered into Eye drop 2 and the sterilization treatment with ethylene oxide gas was altered into a sterilization treatment with gamma rays (32 kGy), the content of latanoprost was calculated in the same manner as in Example 1. […]

[1] = sterilized container compared with container with no sterilization treatment

| Structure (SMILES) | content in the eye drop (container sterilized with gamma rays, electron rays or ethylene oxide gas) | content in the eye drop after a predetermined period of time [1] | content in the eye drop after a predetermined period of time (ethylene oxide gas sterilized container in comparison with gamma-ray or electron-ray sterilized container) |
| --- | --- | --- | --- |
| CC(C)OC(=O)CCC/C=C\C[C@@H]1[C@@H](CC[C@@H](O)CCc2ccccc2)[C@H](O)C[C@@H]1O [latanoprost, 13,14-dihydro-17-phenyl-18,19,20-trinor-prostaglandin F2α isopropyl ester] | did not decrease | comparable | – |
| CC(C)OC(=O)CCC/C=C\C[C@@H]1[C@@H](/C=C/C(F)(F)COc2ccccc2)[C@H](O)C[C@@H]1O [present compound, 16-phenoxy-15-deoxy-15,15-difluoro-17,18,19,20-tetranor-prostaglandin F2α isopropyl ester] | – | comparable | higher |
